{"source": "patent US6995135B2", "about": "“Peptides and peptidomimetics having anti-proliferative activity and/or that augment nucleic acid damaging agents or treatments” (priority 2002, dated 2006)", "key": {"Jurkat cells [1]": {"system": "Jurkat cells", "test": "M phase checkpoint abrogation / non specific toxicity in colchicine treated Jurkat cells, flow cytometry", "format": "cell-based", "settings": "0.5 μg/ml colchicine, up to 50 μM of peptide, FIG. 12", "description": "Cell-cycle analysis The cell cycle status of the cells treated with bleomycin or adriamcin were analyzed by flow cytometry as described by Kawabe (1997) Nature 385:454–458. In brief, two million cells were re-suspended and incubated in 200 μul Krishan's solution (0.1% Sodium citrate, 50 μg/ml PI, 20 μg/ml RNase A and 0.5% NP-40) for 1 hr at 4° C. and analyzed by a flow cytometry, FACScan™ (Beckton Dickinson, Mountain View, Calif.) with the program CELLQuest™ (Beckton Dickinson).\nFlow cytometry analysis of M phase checkpoint abrogation by the compounds was performed using human T cell leukemia Jurkat cell line treated with colchicine (5 μg/ml or 0.5 μg/ml) and various doses of peptide/peptidomimetics for 24 hr (FIG. 12). The DNA of the cells was stained and analyzed by flow cytometry as described above.\nThe “Appearance of side effect when used alone” indicates the peptide/peptidomimetic dose that produced Jurkat cell cycle disturbance, i.e., the appearance of significant amounts of SubG1 cells (dead cells) or cells in which the DNA content of each varies more than usual. […]\nA comparison between G2 checkpoint abrogating activity and non specific toxicity (M checkpoint abrogation) by CB501 was performed. […] The DNA amount in each of the treated cells was analyzed by flow cytometry, as previously described."}, "HUVEC [2]": {"system": "HUVEC", "test": "G2 checkpoint abrogation with cis-platin, flow cytometry", "format": "cell-based, human", "settings": "normal G1 checkpoint, at least up to 50 μM CBP501", "description": "The medium was aspirated, fresh medium without these compounds was added and the cells were incubated for an additional 45 hr. The cells including floating cells were harvested using trypsin-EDTA solution, incubated with Krishan's solution and analyzed for DNA content by flow cytometry as previously described."}, "[3]": {"test": "Mouse serum treatment analysis, residual peptide by HPLC", "format": "in vitro ADME", "settings": "1 hr at 37 degree, read-out: Residual peptide after 1 hr human serum treatment (Mouse serum treatment analysis)"}, "MIAPaCa2 [4]": {"system": "MIAPaCa2", "test": "Sensitization of MIAPaCa2 to bleomycin or adriamycin, % sub-G1 cells by flow cytometry", "format": "cell-based, human", "settings": "bleomycine 10 μg/ml or adriamycin 1 μg/ml, 3 hours then 21 hours", "description": "Cell culture A human T-cell leukemia-derived cell line, Jurkat, was cultured in RPMI 1640 (Sigma) supplemented with 10% fetal calf serum (IBL: Immuno-Biological Laboratories, Gunma, Japan) at 37° C./5% CO2. Human pancreatic cancer derived cell line, MIAPaCa2 was cultured in DMEM with 10% fetal calf serum at 37° C./5% CO2.\nThe G2 checkpoint abrogating activity of various compounds at different doses on human pancreatic cancer derived cell line MIAPaCa2 treated with bleomycine (Bleo) or adriamycin (ADR) was studied. Briefly, cells were incubated with the compounds and bleomycine (10 μg/ml) or adriamycin (1 μg/ml) for 3 hours. The medium was changed and incubated for an additional 21 hours. Harvested cells were stained for DNA by propium iodide and analyzed with flow cytometry as previously described. The % of the sub-G1 cell population is indicated as dead cells in FIG. 3."}, "[5]": {"test": "Human serum treatment analysis, residual G2 checkpoint abrogating activity", "format": "in vitro ADME", "settings": "d-type amino acid peptides compared with l-type peptide such as CBP413", "description": "Serum analysis was performed to determine the stability of peptides in mouse and human serum. Briefly, peptides (10 mM or 2.5 mM) were incubated with freshly prepared human serum at 37 degrees for 1 hr. CBP50 (10 mM) was incubated with freshly prepared mouse serum for 1 hr at 37 degree. Jurkat cells were treated with the serum with or without peptides and bleomycin (40 μg/ml) and incubated for 24 hr. The population of G2 phase cells was determined by flow cytometry as previously described. The residual G2 checkpoint abrogating activity of serum treated peptides were determined by comparing the % G2 cells of the treated serum and the standard curve produced with medium treated peptides, bleomycin and Jurkat cells (Table 5A)."}, "[6]": {"system": "MIAPaCa2 human pancreatic carcinoma cells", "test": "Colony formation analysis of MIAPaCa2 cells", "format": "cell-based", "settings": "CBP501 with cisplatin or oxaliplatin (1, 3 or 9 μg/ml), three hours then 10 days", "experimental": "Briefly, cells were plated at 300 cells/well in 6 well plates, incubated overnight, and treated with the compounds for three hours. The medium was changed and cultured for an additional 10 days. Cells were subsequently fixed with 70% methanol, stained with 0.1% crystal violet and visualized."}, "Jurkat cells [7]": {"system": "Jurkat cells", "test": "G2 checkpoint abrogation in bleomycin treated Jurkat cells, flow cytometry", "format": "cell-based, human", "settings": "Jurkat cells; with 40 μg/ml bleomycine, 24 hours; dose with detectable G2 checkpoint abrogation", "experimental": "Flow cytometry analysis of G2 checkpoint abrogation was performed using human leukemia derived Jurkat cell line. In brief, cultured cells were treated with various doses of peptide/peptidomimetic and 40 μg/ml bleomycine for 24 hr. The DNA of the cells was stained with propidium iodide and analyzed by flow cytometry.\nThe “Appearance of side effect when used alone” indicates the peptide/peptidomimetic dose that produced Jurkat cell cycle disturbance, i.e., the appearance of significant amounts of SubG1 cells (dead cells) or cells in which the DNA content of each varies more than usual. […] The “G2 abrogating dose” indicates the peptide/peptidomimetic dose with 40 μg/ml bleomycine that produced detectable G2 checkpoint abrogation activity following treatment for 24 hours. The “Appearance of side effect when used with colchicine” indicates the peptide/peptidomimetic dose with 5 μg/ml colchicine that produced Jurkat cell cycle disturbance following treatment for 24 hours."}, "HUVEC [8]": {"system": "HUVEC", "test": "Growth of normal human umbilical endothelial cells (HUVEC)", "format": "cell-based", "description": "Similar studies were performed using normal human umbilical endothelial cells (HUVEC)."}, "MIAPaCa2 [9]": {"system": "MIAPaCa2", "test": "Growth inhibition analysis of MIAPaCa2 using alamar blue", "format": "cell-based, human", "description": "The medium was changed and incubated an additional 24, 48 or 72 hour. Following incubation, 20 μl of alamarBlue 90% reagent was added to each well for another 6 hours for detection of cell viability by fluorescent intensity. Fluorescent intensity was measured using a Spectrafluor Plus plate reader with exitation 530 nm and emission 590 nm. The IC50 was calculated (Table 6)."}, "[10]": {"system": "MIAPaCa2 human pancreatic carcinoma cells", "test": "MIAPaCa2 human pancreatic carcinoma subcutaneous tumor in scid mice", "format": "in vivo, mouse", "description": "To study in vivo efficacy of the compounds, MIAPaCa2 human pancreatic carcinoma cells were implanted subcutaneously in scid mice. The treatment was initiated when the size of the primary tumor became 0.1 cm3 (Day0) or larger, e.g., 7 or 8 mm in diameter. CDDP (3 mg/kg) and CBP 501 (10 or 40 mg/kg) were intra-peritoneally administered alone or in combination. Tumor sizes were measured using calipers three times a week, and volumes were calculated using the formula: weight(mg)=[width (mm)2×length (mm)]/2. Mean tumor sizes for each treatment group are plotted (n=4) against the days after the start of treatment (FIG. 10)."}}, "note": "Entries after “also recorded” stand apart in the source; their conditions may differ. Square brackets hold non-standard residues; d marks the D form. Peptide text beside a SMILES is read from it. dPhe(F5) = N[C@H](Cc1c(F)c(F)c(F)c(F)c1F)C(=O)O; dBpa = N[C@H](Cc1ccc(C(=O)c2ccccc2)cc1)C(=O)O; dCha = N[C@H](CC1CCCCC1)C(=O)O", "data": [{"smiles": "N=C(N)NCCC[C@@H](NC(=O)[C@@H](CCCNC(=N)N)NC(=O)[C@@H](CCC(N)=O)NC(=O)[C@@H](CCCNC(=N)N)NC(=O)[C@@H](CCCNC(=N)N)NC(=O)[C@@H](CCCNC(=N)N)NC(=O)[C@@H](CC1CCCCC1)NC(=O)[C@@H](Cc1c(F)c(F)c(F)c(F)c1F)NC(=O)[C@@H](CO)NC(=O)[C@@H](Cc1c[nH]c2ccccc12)NC(=O)[C@@H](CO)NC(=O)[C@H](N)Cc1ccc(C(=O)c2ccccc2)cc1)C(=O)O", "note": "[CBP501, (d-Bpa)(d-Ser)(d-Trp)(d-Ser)(d-Phe-2,3,4,5,6-F)(d-Cha)(d-Arg)(d-Arg)(d-Arg)(d-Gln)(d-Arg)(d-Arg)] (H-[dBpa][dS][dW][dS][dPhe(F5)][dCha][dR][dR][dR][dQ][dR][dR]-OH; N-terminus and C-terminus assumed)", "values": [{"measurement": "Solubility in water (in words)", "setting": "Solubility in water", "result": "soluble in water"}, {"measurement": "Non specific toxicity (M checkpoint abrogation) (in words)", "setting": "Jurkat cells [1]", "result": "absent; also recorded: does not affect M phase cell cycle arrest and/or non specific toxicity induced by colchicine"}, {"measurement": "Sensitization of HUVEC cells to cisplatin (in words)", "setting": "HUVEC [2]", "result": "not sensitized"}, {"measurement": "remaining at 1 h, 10 mM", "setting": "[3]", "result": "> 90", "unit": "%"}, {"measurement": "Sensitization of MIAPaCa2 cells to bleomycin and adriamycin (% sub-G1, in words)", "setting": "MIAPaCa2 [4]", "result": "sensitized MIAPaCa2 cells to both bleomycin and adriamycin in a dose dependent manner"}, {"measurement": "Stability in serum (in words)", "setting": "[5]", "result": "more stable in serum"}, {"measurement": "Effect on cyto-toxic activity of cisplatin and oxaliplatin, colony formation (in words)", "setting": "[6]", "result": "enhanced the cyto-toxic activity of both cisplatin and oxaliplatin"}, {"measurement": "G2 abrogating dose", "setting": "Jurkat cells [7]", "result": "≧0.39 μM"}, {"measurement": "Effect on growth of HUVEC cells, peptide alone (in words)", "setting": "HUVEC [8]", "result": "does not affect the growth of HUVEC cells"}, {"measurement": "Cell growth inhibition alone (in words)", "setting": "MIAPaCa2 [9]; compared with cisplatin", "result": "inhibits cell growth better than cisplatin in molar dose"}, {"measurement": "Cell growth suppression combined with 10 μM of cisplatin (in words)", "setting": "MIAPaCa2 [9]; with 10 μM cisplatin", "result": "suppressed cell growth at a much lower dose"}, {"measurement": "Tumor growth, CBP501 treatment alone (in words)", "setting": "[10]; CBP501 10 or 40 mg/kg intra-peritoneal", "result": "suppresses the growth of human pancreatic cancer cell in vivo"}, {"measurement": "Anti-tumor activity of cisplatin in combination (in words)", "setting": "[10]; CDDP 3 mg/kg with CBP501 10 or 40 mg/kg intra-peritoneal", "result": "increased the anti-tumor activity of cisplatin"}]}]}
